According to patent US12583835B2, “Crystal form of nitroxoline prodrug, pharmaceutical composition containing same, and preparation method therefor and application thereof” (Jiangsu Yahong Meditech Co., Ltd., priority 2020, dated 2026):
Values joined by “and” are separate entries in the source; they are usually repeats but may differ in a detail not shown here. Identical values can stand only once.

Assays:
[1] = Stability in liver microsome (dog); format: in vitro ADME; settings: 2 μM, 30 minutes, 37° C.
Procedure: (§1) Experimental instruments: thermostatic oscillator (SHA-B, Guohua Instrument); centrifuge (5810R, Eppendorf), mass spectrometer (API4000, Applied), liquid chromatography (LC-30AD, Shimadzu); sampler (CTC Analytics AG System, CTC).
(§2) Experimental procedures: to 100 mM phosphate buffer was added 25 μg/mL alamethicin (Aldrich Reagents), 5 mM magnesium chloride and 0.5 mg/mL microsomes (XENOTECH) to prepare a reaction solution without coenzymes. To a portion of the reaction solution was added 1 mM reduced nicotinamide adenine dinucleotide phosphate (Aldrich Reagents) and 5 mM uridine diphosphate glucuronic acid (Aldrich Reagents) to prepare a reaction solution with coenzymes. […] Immediately after mixing well, 50 μL of the solution was collected as the 0-minute sample, and another 50 μL was collected after 30 minutes of incubation of the remaining sample at 37° C. The proteins in all collected samples were immediately precipitated, and the supernatants were collected by centrifugation, in which the compound concentrations were determined by LC/MS/MS.

[2] = Stability in liver microsome (mouse); format: in vitro ADME; settings: 2 μM, 30 minutes, 37° C.
Procedure: as §1, §2

[3] = Pharmacokinetic assay in dogs; format: in vivo; settings: beagles
From the text: Nitroxoline is mainly metabolized by Phase II metabolism in the liver with a high metabolism rate, thus the in vivo half-life is short. In this experiment, after a single intravenous or oral administration of nitroxoline and the compound obtained in Example 1 to dogs, the changes in the concentration of the compound nitroxoline in dog plasma were studied, so as to evaluate the in vivo pharmacokinetic behaviors of nitroxoline and the compound obtained in Example 1.
Male beagles (Beijing Marshall Bioresources Co., Ltd., laboratory animal production license No.: SCXK (Beijing) 2016-0001, laboratory animal certificate No.: 11400600001728), 3 beagles per group, weight 10-13 kg, 20-22 months old, were fasted overnight before drug administration with free access to water, and food was given 4 hours after drug administration. The compound to be tested was put into an EP tube, dimethyl sulfoxide, Solutol® and sterile water for injection (the volume ratio of the three was 1:2:17, v:v:v) were added, and the EP tube was sonicated for 20 minutes to fully dissolve the compound (formulation concentration of the compound: 0.005 mmol/mL). The intravenous dose was 0.01 mmol/kg, and the oral dose was 0.1 mmol/kg. 0.3 ml of whole blood was collected from the jugular vein before drug administration (0 hour) and 0.0833, 0.25, 0.5, 0.75, 1, 2, 4, 6, 8, 10 and 12 hours after drug administration (the sampling points were adjusted according to the situation) and placed in a centrifuge tube containing EDTA-K2 (Aldrich Reagents) for anticoagulation, which was placed in crushed ice after sample collection. The tube was centrifuged at 1530 g for 10 minutes within 0.5 hours of sample collection. All clean plasma were isolated and placed in another clean centrifuge tube, which was placed in a −20° C. refrigerator until testing.
A series of solutions for standard curve was prepared. To 10 μL of solutions for standard curve and samples was added 1000 μL of internal standard working solution (a solution of 5 ng/mL verapamil (Aldrich Reagents), 50 ng/mL glibenclamide (Aldrich Reagents) and 50 ng/mL diclofenac (Aldrich Reagents) in acetonitrile) was added, and the resulting solution was vortexed for 5 minutes. After centrifuging at 4° C., 3700 rpm for 10 minutes, 60 μL of the supernatant was collected into a sample tube and mixed well with 120 μL of water, and 10 μL of the mixed solution was injected into the LC/MS system for determination. Pharmacokinetic parameters were calculated using WinNonlin V6.2 non-compartmental model.

[4] = Stability in liver microsome (rat); format: in vitro ADME; settings: 2 μM, 30 minutes, 37° C.
Procedure: as §1, §2

[5] = Stability in liver microsome (human); format: in vitro ADME; settings: 2 μM, 30 minutes, 37° C.
Procedure: as §1, §2

[6] = Pharmacokinetic assay in rats; format: in vivo; settings: SD rats, oral 0.1 mmol/kg, 24 h, individual animals
From the text: In this experiment, after a single intravenous or oral administration of nitroxoline and the compound obtained in Example 1 to rats, the changes in the concentration of the compound nitroxoline in rat plasma were studied, so as to evaluate the in vivo pharmacokinetic behaviors of nitroxoline and the compound obtained in Example 1 in rats.
Male SD rats (Beijing Vital River Laboratory Animal Technology Co., Ltd., laboratory animal production license No.: SCXK (Beijing) 2016-0006, laboratory animal certificate No.: 11400700325643), 3 rats per group, weight 180-250 g, 6-7 weeks old, were fasted overnight before drug administration with free access to water, and food was given 4 hours after drug administration. The compound to be tested was put into an EP tube, 1.017 mL dimethyl sulfoxide, 2.035 mL Solutol® and sterile water for injection (the volume ratio of the three was 1:2:17, v:v:v) were added, and the EP tube was sonicated for 20 minutes to fully dissolve the compound (formulation concentration of the compound: 0.005 mmol/mL). […]
Sample to be tested: to 50 μL of plasma sample to be tested was added 5 μL of diluted working solution, then 150 μL of internal standard working solution (a solution of 2 ng/mL diphenhydramine in acetonitrile), and the resulting solution was vortexed for 1 minute. […] Pharmacokinetic parameters were calculated using WinNonlin V6.2 non-compartmental model.

[7] = human; single-arm, open-label, multi-center phase II clinical trial; cited from earlier work

SMILES | Percentage (%) of remaining compound in dog liver microsomes ([1]; With coenzyme) [%] | Percentage (%) of remaining compound in dog liver microsomes ([1]; Without coenzyme) [%] | Percentage (%) of remaining compound in mouse liver microsomes ([2]; With coenzyme) [%] | Percentage (%) of remaining compound in mouse liver microsomes ([2]; Without coenzyme) [%] | AUC0-inf of nitroxoline in plasma ([3]; intravenous 0.01 mmol/kg) [ng*hmL^−1] | AUC0-inf of nitroxoline in plasma ([3]; oral 0.1 mmol/kg) [ng*hmL^−1] | Percentage (%) of remaining compound in rat liver microsomes ([4]; With coenzyme) [%] | Percentage (%) of remaining compound in rat liver microsomes ([4]; Without coenzyme) [%] | Percentage (%) of remaining compound in human liver microsomes ([5]; With coenzyme) [%] | Percentage (%) of remaining compound in human liver microsomes ([5]; Without coenzyme) [%] | Plasma concentration of nitroxoline [6] | half-life [7] [h]
CC(C)C(=O)N1CCC[C@H]1C(=O)OCOc1ccc([N+](=O)[O-])c2cccnc12 [Compound obtained in Example 1, ((5-nitroquinolin-8-yl)oxy)methyl-isobutyryl-L-prolinate] | 33.13 | 53.50 | 0.09 | 49.07 | 1290 | 8750 | 3.64 | 46.82 | 26.92 | 59.42 | – | –
O=[N+]([O-])c1ccc(O)c2ncccc12 [Nitroxoline, 5-nitro-8-hydroxyquinoline] | – | – | – | – | 3300 | 4780 | – | – | – | – | <5.0 ng/mL (2×) and 14.6 ng/mL | 1.22 to 1.44
